The subject of this assay is tobacco budworm (Heliothis virescens). Put plainly: Tobacco budworm (Heliothis virescens) I: 96-well microtiter plates with insect diet and eggs, egg and larval mortality. The format is in vivo. The settings on record: 120 h, read-out: mortality (egg and larval mortality, visually assessed). How it is done: B.1 Tobacco Budworm (Heliothis virescens) I
For evaluating control of tobacco budworm (Heliothis virescens) the test unit consisted of 96-well-microtiter plates containing an insect diet and 15-25 H. virescens eggs. The compounds were formulated using a solution containing 75% v/v water and 25% v/v DMSO. Different concentrations of formulated compounds were sprayed onto the insect diet at 10 μl, using a custom built micro atomizer, at two replications. After application, microtiter plates are incubated at about 28±1° C. and about 80±5% relative humidity for 5 days. Egg and larval mortality is then visually assessed.

A value given as a limit tells only on which side of the number the result lay.

One may read the mortality as the percentage killed. As to `Cc1cc(C2=NOC(c3cc(Cl)cc(Cl)c3)(C(F)(F)F)C2)ccc1C=NNC(=O)NCC(F)(F)F` (centres unmarked) [Compound 1-1, 4-[5-(3,5-dichloro-phenyl)-5-trifluoromethyl-4,5-dihydro-isoxazol-3-yl]-2-methyl-benzaldehyde-4-trifluoroethylsemicarbazone], the mortality at 2500 ppm was not below 75%.
With `CC(=NNC(=O)NCC(F)(F)F)c1ccc(C2=NOC(c3cc(Cl)cc(Cl)c3)(C(F)(F)F)C2)cc1C` (centres unmarked) [Compound 1-19, 1-{4-[5-(3,5-dichloro-phenyl)-5-trifluoromethyl-4,5-dihydro-isoxazol-3-yl]-2-methyl-phenyl}-ethanone-4-trifluoroethylsemicarbazone], the mortality at 2500 ppm was not below 75%.

Source of the values: patent publication US9085541B2, “Process for producing imine compounds for combating invertebrate pests” (priority 2010, dated 2015).
